Patent US20050119304A1, “Urea derivatives” (priority 2001, published 2005)
pIC50: −log10 of the molar value. Read-outs that look alike come from different tables or passages of the source.

Legend:
human VR1 = target: T1, human VR1 (Homo sapiens, UniProt Q8NER1); experiment: Capsaicin-induced Ca2+ influx in the human VR1-transfected CHO cell line (Assay 1); assay type: cell-based
T1 construct: The cloned hVR1 cDNA was constructed with pcDNA3 vector and transfected into a CHOluc9aeq cell line; expressed in transfected cells
Description: [Measurement of Capsaicin-Induced Ca^2+ Influx in the Human VR1-Transfected CHO Cell Line] (Assay 1)
(1) Establishment of the Human VR1-CHOluc9aeq Cell Line
Human vanilloid receptor (hVR1) cDNA was cloned from libraries of axotomized dorsal root ganglia (WO2000/29577). The cloned hVR1 cDNA was constructed with pcDNA3 vector and transfected into a CHOluc9aeq cell line. The cell line contains aequorin and CRE-luciferase reporter genes as read-out signals. The transfectants were cloned by limiting dilution in selection medium (DMEM/F12. medium (Gibco BRL) supplemented with 10% FCS, 1.4 mM Sodium pyruvate, 20 mM HEPES, 0.15% Sodium bicarbonate, 100 U/ml penicillin, 100 μg/ml strept mycin, 2 mM glutamine, non-essential amino acids and 2 mg/ml G418). Ca^2+ influx was examined in the capsaicin-stimulated clones. A high responder clone was selected and used for further experiments in the project. The human VR1-CHOluc9aeq cells were maintained in the selection medium and passaged every 3-4 days at 1-2.5×10^5 cells/flask ([…]).
(2) Measurement of Ca^2+ Influx Using FDSS-3000
Human VR1-CHOluc9aeq cells were suspended in a culture medium which is the same as the selection medium except for G418 and seeded at a density of 1,000 cells per well into 384-well plates (black walled clear-base/Nalge Nunc International). Following the culture for 48 hrs the medium was changed to 2 μM Fluo-3 AM (Molecular Probes) and 0.02% Puronic F-127 in assay buffer (Hank's balanced salt solution (HBSS), 17 mM HEPES (pH7.4), 1 mM Probenecid, 0.1% BSA) and the cells were incubated for 60 min at 25° C. After washing twice with assay buffer the cells were incubated with a test compound or vehicle for 20 min at 25° C. Mobilization of cytoplasmic Ca^2+ was measured by FDSS-3000 (λex=488 nm, λem=540 nm/Hamamatsu Photonics) for 60 sec after the stimulation with 10 nM capsaicin. Integral R was calculated and compared with controls.
The data corresponds to the compounds as yielded by solid phase synthesis and thus to levels of purity of about 40 to 90%.

T1 sequence (Q8NER1 whole entry): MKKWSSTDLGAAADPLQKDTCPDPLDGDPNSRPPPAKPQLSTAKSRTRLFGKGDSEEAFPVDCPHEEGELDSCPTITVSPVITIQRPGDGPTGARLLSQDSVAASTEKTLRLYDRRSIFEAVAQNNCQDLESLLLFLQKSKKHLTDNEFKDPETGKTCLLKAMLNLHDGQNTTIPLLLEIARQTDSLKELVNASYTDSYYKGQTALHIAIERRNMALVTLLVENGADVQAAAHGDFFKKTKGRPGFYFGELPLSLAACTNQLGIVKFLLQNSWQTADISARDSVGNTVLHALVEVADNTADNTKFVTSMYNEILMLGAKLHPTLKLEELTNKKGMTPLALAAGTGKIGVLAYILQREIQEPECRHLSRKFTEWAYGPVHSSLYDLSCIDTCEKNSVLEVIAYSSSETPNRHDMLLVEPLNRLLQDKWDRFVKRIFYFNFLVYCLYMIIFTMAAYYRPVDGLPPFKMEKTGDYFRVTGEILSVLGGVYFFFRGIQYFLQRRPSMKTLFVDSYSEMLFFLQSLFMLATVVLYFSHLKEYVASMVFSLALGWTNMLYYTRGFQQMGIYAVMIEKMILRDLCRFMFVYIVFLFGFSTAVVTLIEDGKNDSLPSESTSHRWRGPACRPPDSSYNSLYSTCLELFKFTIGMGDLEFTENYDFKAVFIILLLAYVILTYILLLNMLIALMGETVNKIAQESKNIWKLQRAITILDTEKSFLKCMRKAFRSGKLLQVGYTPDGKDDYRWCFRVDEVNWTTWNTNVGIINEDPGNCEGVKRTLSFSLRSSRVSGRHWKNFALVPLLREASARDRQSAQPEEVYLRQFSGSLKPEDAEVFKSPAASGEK

Row | pIC50 (human VR1; read-out: hVR1 class) | melting point | pIC50 (human VR1; read-out: Activity grade) | SMILES
1 | > 7.00 | > 250 °C | – | Cc1nc2cc(NC(=O)Nc3ccc(Br)cc3)ccc2s1 [Example 26]
2 | 6.30 to 7.00 | 234 to 235 °C | – | Cc1nc2ccc(NC(=O)Nc3ccc(Cl)c(C(F)(F)F)c3)cc2s1 [Example 15]
3 | 6.00 to 6.30 | – | – | O=C(Nc1ccc(Cl)c(C(F)(F)F)c1)Nc1ccc2[nH]c(C(F)(F)F)nc2c1 [Example 104]
4 | 6.30 to 7.00 | 223 °C | – | Cc1ccc(CNC(=O)Nc2cccc3[nH]ccc23)cc1 [Example 100]
5 | 6.30 to 7.00 | 233 to 235 °C | – | O=C(Nc1ccc(Cl)c([N+](=O)[O-])c1)Nc1cccc2[nH]ccc12 [Example 96]
6 | 6.00 to 6.30 | 190 to 192 °C | – | O=C(NCc1cccc(F)c1)Nc1cccc2[nH]ccc12 [Example 99]
7 | 6.30 to 7.00 | 238 to 240 °C | – | O=C(Nc1ccc(Br)cc1)Nc1cccc2[nH]ccc12 [Example 60]
8 | 6.00 to 6.30 | 244 to 246 °C | – | O=C(Nc1ccccc1F)Nc1cccc2[nH]ccc12 [Example 94]
9 | > 7.00 | 229 to 231 °C | – | Cc1nc2cc(NC(=O)Nc3cccc(C(F)(F)F)c3)ccc2s1 [Example 23]
10 | 6.00 to 6.30 | 228 to 231 °C | – | CSc1ccc(NC(=O)Nc2cccc3[nH]ccc23)cc1 [Example 82]
11 | > 7.00 | 243 to 244 °C | – | Cc1nc2cc(NC(=O)Nc3ccc(F)cc3F)ccc2s1 [Example 30]
12 | > 7.00 | 228 to 229 °C | – | Cc1nc2cc(NC(=O)Nc3ccc(Oc4ccccc4)cc3)ccc2s1 [Example 25]
13 | > 7.00 | 200 to 202 °C | – | Cc1cccc(NC(=O)Nc2ccc3sc(C)nc3c2)c1 [Example 20]
14 | 6.00 to 6.30 | 243 to 245 °C | – | O=C(Nc1ccc(F)cc1)Nc1ccc2[nH]ccc2c1 [Example 72]
15 | 6.00 to 6.30 | 206 to 208 °C | – | COc1cccc(NC(=O)Nc2ccc3c(c2)S(=O)(=O)C=C3)c1 [Example 45]
16 | 6.30 to 7.00 | 237 to 238 °C | – | O=C(NCc1ccccc1Cl)Nc1cccc2[nH]ccc12 [Example 101]
17 | – | 213 to 215 °C | > 7.00 | O=C(Nc1cccc(-c2ccccc2)c1)Nc1cccc2[nH]ccc12 [Example 2, N-(1,1′-biphenyl-3-yl)-N′-(1H-indol-4-yl)urea]
18 | > 7.00 | 189 to 191 °C | – | Cc1nc2c(NC(=O)Nc3ccc(Cl)c(C(F)(F)F)c3)cccc2[nH]1 [Example 53]
19 | – | 225 to 228 °C | > 7.00 | O=C(Nc1ccc(Cl)c(C(F)(F)F)c1)Nc1ccc2ncsc2c1 [Example 1, N-(1,3-benzothiazol-6-yl)-N′-[4-chloro-3-(trifluoromethyl)phenyl]urea]
20 | 6.30 to 7.00 | 248 to 251 °C | – | O=C(Nc1ccc(F)c([N+](=O)[O-])c1)Nc1cccc2[nH]ccc12 [Example 98]
21 | 6.30 to 7.00 | 262 to 263 °C | – | O=C(Nc1cc(Cl)cc(Cl)c1)Nc1cccc2[nH]ccc12 [Example 93]
22 | 6.00 to 6.30 | > 250 °C | – | O=C(Cc1ccc(Cl)c(C(F)(F)F)c1)Nc1ccc2cn[nH]c2c1 [Example 19]

The next lines start with the compound.

Row | SMILES | pIC50 (human VR1; read-out: hVR1 class) | melting point | pIC50 (human VR1; read-out: Activity grade)
23 | Cc1cccc(NC(=O)Nc2ccc3c(c2)S(=O)(=O)C=C3)c1 [Example 38] | 6.00 to 6.30 | 219 to 222 °C | –
24 | O=C(Nc1ccc(C(F)(F)F)cc1)Nc1cccc2[nH]ccc12 [Example 92] | 6.30 to 7.00 | 242 to 243 °C | –
25 | O=C(Nc1ccc(Cl)c(C(F)(F)F)c1)Nc1cccc2[nH]c(C(F)(F)F)nc12 [Example 9] | > 7.00 | 165 to 169 °C | –
26 | O=C(NCc1ccc(Br)cc1)Nc1cccc2[nH]ccc12 [Example 89] | > 7.00 | 199 to 202 °C | –
27 | CSc1nc2ccc(NC(=O)Nc3ccc(Cl)c(C(F)(F)F)c3)cc2s1 [Example 14] | 6.30 to 7.00 | 236 to 238 °C | –
28 | Cc1ccc(NC(=O)Nc2cccc3[nH]ccc23)cc1Cl [Example 65] | > 7.00 | 246 to 247 °C | –
29 | Cc1cccc(NC(=O)Nc2ccc3[nH]ccc3c2)c1 [Example 70] | 6.00 to 6.30 | 250 °C | –
30 | O=C(Nc1cc([N+](=O)[O-])ccc1F)Nc1cccc2[nH]ccc12 [Example 97] | 6.00 to 6.30 | 261 to 263 °C | –
31 | O=C(Nc1ccc(Oc2ccccc2)cc1)Nc1ccc2[nH]ccc2c1 [Example 69] | 6.30 to 7.00 | 231 to 233 °C | –
32 | Cc1cccc(NC(=O)Nc2ccc3[nH]c(C(F)(F)F)nc3c2)c1 [Example 76] | 6.00 to 6.30 | 245 to 247 °C | –
33 | Cc1nc2cc(NC(=O)Nc3ccc(Cl)c(Cl)c3)ccc2s1 [Example 29] | > 7.00 | – | –
34 | CSc1cccc(NC(=O)Nc2cccc3[nH]ccc23)c1 [Example 34] | 6.30 to 7.00 | 198 to 201 °C | –
35 | Cc1nc2cc(NC(=O)Nc3ccc4ccccc4c3)ccc2s1 [Example 27] | > 7.00 | > 250 °C | –
36 | O=C(NCc1ccc(Br)cc1)Nc1cccc2cc[nH]c12 [Example 11] | > 7.00 | 205 to 208 °C | –
37 | O=C(Nc1ccc2c(c1)C(=O)OC2)Nc1ccc(Cl)c(C(F)(F)F)c1 [Example 17] | 6.30 to 7.00 | > 250 °C | –
38 | COc1cccc(NC(=O)Nc2ccc3[nH]c(C(F)(F)F)nc3c2)c1 [Example 79] | 6.00 to 6.30 | 233 to 237 °C | –
39 | O=C(Nc1cccc(C(F)(F)F)c1)Nc1cccc2[nH]ccc12 [Example 41] | > 7.00 | 211 to 213 °C | –
40 | O=C(Nc1cccc(Cl)c1)Nc1cccc2[nH]ccc12 [Example 87] | 6.30 to 7.00 | 238 to 239 °C | –
41 | O=C(Nc1ccc(Cl)c(C(F)(F)F)c1)Nc1ccc2[nH]c(=S)sc2c1 [Example 18] | 6.00 to 6.30 | > 250 °C | –

Row | SMILES | pIC50 (human VR1; read-out: hVR1 class) | melting point | pIC50 (human VR1; read-out: Activity grade)
42 | O=C(Nc1ccc(F)cc1)Nc1ccc2[nH]c(C(F)(F)F)nc2c1 [Example 78] | 6.00 to 6.30 | 242 to 243 °C | –
43 | O=C(Nc1ccc2ccccc2c1)Nc1cccc2[nH]ccc12 [Example 88] | 6.30 to 7.00 | 242 to 243 °C | –
44 | CCOC(=O)c1cccc(NC(=O)Nc2cccc3[nH]ccc23)c1 [Example 85] | > 7.00 | 194 to 196 °C | –
45 | O=C(Nc1ccccc1-c1ccccc1)Nc1cccc2[nH]ccc12 [Example 86] | 6.00 to 6.30 | 104 to 106 °C | –
46 | O=C(NCc1ccc(Br)cc1)Nc1cccc2[nH]c(C(F)(F)F)nc12 [Example 105] | 6.00 to 6.30 | – | –
47 | O=C(Nc1ccc(Cl)c(C(F)(F)F)c1)Nc1cccc2cc[nH]c12 [Example 7] | > 7.00 | 229 to 233 °C | –
48 | O=C(Nc1ccc(Cl)c(C(F)(F)F)c1)Nc1ccc2[nH]cnc2c1 [Example 57] | 6.30 to 7.00 | 218 to 220 °C | –
49 | Cc1cccc(NC(=O)Nc2ccc3[nH]ncc3c2)c1 [Example 103] | 6.00 to 6.30 | – | –
50 | O=C(Nc1ccc(F)cc1F)Nc1cccc2[nH]ccc12 [Example 64] | 6.00 to 6.30 | 247 to 248 °C | –
51 | O=C(Nc1ccc(F)cc1)Nc1ccc2[nH]ncc2c1 [Example 67] | 6.00 to 6.30 | > 250 °C | –
52 | O=C(Nc1ccc(F)cc1)Nc1ccc2c(c1)S(=O)(=O)C=C2 [Example 43] | 6.00 to 6.30 | 242 to 243 °C | –
53 | O=C(Nc1cccc(C(F)(F)F)c1)Nc1ccc2c(c1)S(=O)(=O)C=C2 [Example 44] | – | > 250 °C | –
54 | O=C(Nc1ccc(Cl)c(C(F)(F)F)c1)Nc1cccc2[nH]ccc12 [Example 8] | > 7.00 | 230 to 233 °C | –
55 | COc1cccc(NC(=O)Nc2ccc3[nH]ccc3c2)c1 [Example 73] | 6.00 to 6.30 | 227 to 229 °C | –
56 | O=C(Nc1cc(C(F)(F)F)ccc1Cl)Nc1cccc2[nH]ccc12 [Example 68] | > 7.00 | 211 to 213 °C | –
57 | Cc1nc2cc(NC(=O)Nc3ccc(Oc4ccccc4)cc3)ccc2[nH]1 [Example 49] | 6.00 to 6.30 | 243 to 245 °C | –
58 | O=C(Nc1ccc(Cl)c(C(F)(F)F)c1)Nc1ccc2c(c1)S(=O)(=O)C=C2 [Example 13] | > 7.00 | – | –
59 | O=C(Nc1ccc(Oc2ccccc2)cc1)Nc1cccc2[nH]c(C(F)(F)F)nc12 [Example 106] | 6.30 to 7.00 | – | –
60 | Cc1nc2cc(NC(=O)Nc3cccc(-c4ccc(Cl)cc4)c3)ccc2s1 [Example 47] | 6.30 to 7.00 | – | –
